Measured values taken from patent publication US20230126447A1, “OCULAR DRUG DEPOT FOR COMPLEMENT-MEDIATED DISORDERS” (priority 2020, published 2023).
Read-outs that look alike come from different tables or passages of the source.

Assay: Ocular tissue distribution and pharmacokinetics, 7.5 and 15 mg/kg oral, pigmented Dutch Belted rabbits (Example 7)
Type: in vivo
Protocol: For Group 1, two animals/time point were sacrificed via an overdose of sodium pentobarbital at approximately 1, 6, 12, 24, 96, 168, and 240 hours postdose. Blood (approximately 2 mL) was collected from all animals at sacrifice into tubes containing K2EDTA via exsanguination (cardiac puncture).
For Groups 2 through 4, blood (approximately 2 mL) was collected via a jugular vein using a syringe and needle and was transferred into tubes containing K2EDTA at approximately 12 hours after the a.m. dose on Day 15 from the two animals designated for sacrifice at approximately 240 hours after the a.m. dose on Day 15.
For Groups 2 through 4, two animals/group/time point were sacrificed via an overdose of sodium pentobarbital prior to dosing on Day 15 and at approximately 1, 6, 24, 96, 168, and 240 hours after the a.m. dose on Day 15. Blood (approximately 2 mL) was collected from all animals at sacrifice into tubes containing K2EDTA via exsanguination (cardiac puncture).
Blood was maintained on wet ice, in chilled cryoracks, or at approximately 5° C. prior to centrifugation to obtain plasma. Centrifugation began within 1 hour of collection (Deviation). Plasma was placed into 96-well tubes with barcode labels. Plasma was maintained on dry ice prior to storage at approximately −70° C.
At the time of sacrifice, both eyes were enucleated, and the following tissues were collected. Each eye was flash-frozen in liquid nitrogen for 15 to 20 seconds. The enucleated eye was placed on dry ice or stored at approximately −70° C. for at least 2 hours. Within approximately 3 days, the frozen matrices were collected as right and left eyes for each matrix into the specific tube type listed.
At the time of frozen collection, the ocular tissues were rinsed with saline and blotted dry (as appropriate), weighed, and placed on dry ice. All ocular tissues were collected as single samples.

[1] = Dutch Belted, rabbit, Retina (OU), male DB rabbits, Group 1, Day 1, 7.5 mg/kg single oral dose
[2] = Dutch Belted, rabbit, plasma, male DB rabbits, Group 1, Day 1, 7.5 mg/kg single oral dose
[3] = ICB (OU), male DB rabbits, Group 1, Day 1, […] single oral dose
[4] = ICB (OU), male DB rabbits, Group 2, Day 15, […] BID oral (15 mg/kg/day)
[5] = ICB (OU), male DB rabbits, Group 3, Day 15, 15 mg/kg/dose BID oral (30 mg/kg/day)
[6] = Retina (OU), male DB rabbits, Group 1, Day 1, […] single oral dose
[7] = Retina (OU), male DB rabbits, Group 2, Day 15, […] BID oral (15 mg/kg/day)
[8] = Retina (OU), male DB rabbits, Group 3, Day 15, 15 mg/kg/dose BID oral (30 mg/kg/day)
[9] = male, Dutch Belted, rabbit, choroid-retinal pigment epithelium (choroid-RPE), po, 15 mg/kg, Choroid-RPE (OU), male DB rabbits, Group 3, Day 15, 15 mg/kg/dose BID oral (30 mg/kg/day)
[10] = male, Dutch Belted, rabbit, plasma, po, 15 mg/kg, plasma, male DB rabbits, Group 3, Day 15, 15 mg/kg/dose BID oral (30 mg/kg/day)
[11] = male, Dutch Belted, rabbit, plasma, po, […], plasma, male DB rabbits, Group 1, Day 1, […] single oral dose
[12] = male, Dutch Belted, rabbit, plasma, po, […], plasma, male DB rabbits, Group 2, Day 15, […] BID oral (15 mg/kg/day)
[13] = plasma, male DB rabbits, Group 1, Day 1, […] single oral dose
[14] = plasma, male DB rabbits, Group 2, Day 15, […] BID oral (15 mg/kg/day)
[15] = plasma, male DB rabbits, Group 3, Day 15, 15 mg/kg/dose BID oral (30 mg/kg/day)

SMILES: CC(=O)c1nn(CC(=O)N2C[C@H](F)C[C@H]2C(=O)Nc2cccc(Br)n2)c2ccc(-c3cnc(C)nc3)cc12 [Compound 1, (2S,4R)-1-(2-(3-Acetyl-5-(2-methylpyrimidin-5-yl)-1H-indazol-1-yl)acetyl)-N-(6-bromopyridin-2-yl)-4-fluoropyrrolidine-2-carboxamide]
- MRT last [1]: 2.7 h
- Tmax [1]: 1 h
- Tmax (Dutch Belted, rabbit, Retina (OU), male DB rabbits, Group 3, Day 15, 15 mg/kg/dose BID oral (30 mg/kg/day)): 1 h
- MRT last [2]: 2.67 h
- Tmax [2]: 1 h
- AUC(0-inf) (Dutch Belted, rabbit, plasma, male DB rabbits, Group 1, Day 1, 7.5 mg/kg single oral dose, read-out: AUC0-inf): 1590 ng·h/mL
- Tmax (Dutch Belted, rabbit, plasma, male DB rabbits, Group 3, Day 15, 15 mg/kg/dose BID oral (30 mg/kg/day)): 1 h
- AUC0-12 [3]: 2560 ng·h/g
- AUC(0-24) [3]: 3460 ng·h/g
- AUC(0-t) [3]: 3460 ng·h/g
- Ctrough [3]: 119 ng/g
- DN AUC0-12 [3]: 341 (h*ng/g)/(mg/kg/dose)
- DN AUC0-24 [3]: 462 (h*ng/g)/(mg/kg/day)
- DN Cmax [3]: 57.9 (ng/g)/(mg/kg/day)
- AUC0-12 [4]: 7860 ng·h/g
- AUC(0-24) [4]: 11900 ng·h/g
- AUC(0-t) [4]: 11900 ng·h/g
- Ctrough [4]: 484 ng/g
- DN AUC0-12 [4]: 1050 (h*ng/g)/(mg/kg/dose)
- DN AUC0-24 [4]: 1580 (h*ng/g)/(mg/kg/day)
- DN Cmax [4]: 126 (ng/g)/(mg/kg/day)
- AUC0-12 [5]: 13900 ng·h/g
- AUC(0-24) [5]: 21300 ng·h/g
- AUC(0-t) [5]: 21300 ng·h/g
- Ctrough [5]: 780 ng/g
- DN AUC0-12 [5]: 925 (h*ng/g)/(mg/kg/dose)
- DN AUC0-24 [5]: 1420 (h*ng/g)/(mg/kg/day)
- DN Cmax [5]: 136 (ng/g)/(mg/kg/day)
- AUC0-12 [6]: 765 ng·h/g
- AUC0-240 [6]: 864 ng·h/g
- AUC(0-24) [6]: 864 ng·h/g
- AUC(0-t) [6]: 765 ng·h/g
- Ctrough [6]: 16.5 ng/g
- DN AUC0-12 [6]: 102 (h*ng/g)/(mg/kg/dose)
- DN AUC0-24 [6]: 115 (h*ng/g)/(mg/kg/day)
- DN Cmax [6]: 25.1 (ng/g)/(mg/kg/day)
- AUC0-12 [7]: 1710 ng·h/g
- AUC0-240 [7]: 6070 ng·h/g
- AUC(0-24) [7]: 2450 ng·h/g
- AUC(0-t) [7]: 6070 ng·h/g
- Ctrough [7]: 80.0 ng/g
- DN AUC0-12 [7]: 227 (h*ng/g)/(mg/kg/dose)
- DN AUC0-24 [7]: 327 (h*ng/g)/(mg/kg/day)
- DN Cmax [7]: 40.8 (ng/g)/(mg/kg/day)
- AUC0-12 [8]: 11500 ng·h/g
- AUC0-240 [8]: 16100 ng·h/g
- AUC(0-24) [8]: 6460 ng·h/g
- AUC(0-t) [8]: 16100 ng·h/g
- Ctrough [8]: 123 ng/g
- DN AUC0-12 [8]: 325 (h*ng/g)/(mg/kg/dose)
- DN AUC0-24 [8]: 430 (h*ng/g)/(mg/kg/day)
- DN Cmax [8]: 85.7 (ng/g)/(mg/kg/day)
- Cmax (male, Dutch Belted, rabbit, choroid-RPE (choroid-retinal pigment epithelium), po, […], Choroid-RPE (OU), male DB rabbits, Group 1, Day 1, […] single oral dose): 726 ng/g
- Cmax [9]: 3970 ng/g
- half-life [9]: 76.2 h
- half-life (male, Dutch Belted, rabbit, choroid-retinal pigment epithelium (choroid-RPE), po, […], Choroid-RPE (OU), male DB rabbits, Group 1, Day 1, […] single oral dose): 58.9 h
- Cmax (male, Dutch Belted, rabbit, choroid-retinal pigment epithelium (choroid-RPE), po, […], Choroid-RPE (OU), male DB rabbits, Group 2, Day 15, […] BID oral (15 mg/kg/day)): 2000 ng/g
- Cmax (male, Dutch Belted, rabbit, iris-ciliary body (ICB), po, 15 mg/kg, ICB (OU), male DB rabbits, Group 3, Day 15, 15 mg/kg/dose BID oral (30 mg/kg/day)): 2050 ng/g
- Cmax (male, Dutch Belted, rabbit, iris-ciliary body (ICB), po, […], ICB (OU), male DB rabbits, Group 1, Day 1, […] single oral dose): 435 ng/g
- Cmax (male, Dutch Belted, rabbit, iris-ciliary body (ICB), po, […], ICB (OU), male DB rabbits, Group 2, Day 15, […] BID oral (15 mg/kg/day)): 943 ng/g
- Cmax [10]: 910 ng/mL
- half-life [10]: 4.98 h
- AUC(0-t) (male, Dutch Belted, rabbit, plasma, po, 15 mg/kg, plasma, male DB rabbits, Group 3, Day 15, 15 mg/kg/dose BID oral (30 mg/kg/day), read-out: AUC0-12): 3620 ng·h/mL
- AUC(0-t) (male, Dutch Belted, rabbit, plasma, po, 15 mg/kg, plasma, male DB rabbits, Group 3, Day 15, 15 mg/kg/dose BID oral (30 mg/kg/day), read-out: AUC0-24): 4010 ng·h/mL
- AUC(0-t) (male, Dutch Belted, rabbit, plasma, po, 15 mg/kg, plasma, male DB rabbits, Group 3, Day 15, 15 mg/kg/dose BID oral (30 mg/kg/day), read-out: AUC0-240): 4390 ng·h/mL
- AUC(0-t) (male, Dutch Belted, rabbit, plasma, po, 15 mg/kg, plasma, male DB rabbits, Group 3, Day 15, 15 mg/kg/dose BID oral (30 mg/kg/day), read-out: AUC0-t): 4010 ng·h/mL
- Cmax [11]: 423 ng/mL
- half-life [11]: 6.01 h
- AUC(0-t) (male, Dutch Belted, rabbit, plasma, po, […], plasma, male DB rabbits, Group 1, Day 1, […] single oral dose, read-out: AUC0-12): 1450 ng·h/mL
- AUC(0-t) (male, Dutch Belted, rabbit, plasma, po, […], plasma, male DB rabbits, Group 1, Day 1, […] single oral dose, read-out: AUC0-24): 1560 ng·h/mL
- AUC(0-t) (male, Dutch Belted, rabbit, plasma, po, […], plasma, male DB rabbits, Group 1, Day 1, […] single oral dose, read-out: AUC0-240): 1680 ng·h/mL
- AUC(0-t) (male, Dutch Belted, rabbit, plasma, po, […], plasma, male DB rabbits, Group 1, Day 1, […] single oral dose, read-out: AUC0-t): 1560 ng·h/mL
- Cmax [12]: 440 ng/mL
- half-life [12]: 4.88 h
- AUC(0-t) (male, Dutch Belted, rabbit, plasma, po, […], plasma, male DB rabbits, Group 2, Day 15, […] BID oral (15 mg/kg/day), read-out: AUC0-12): 1910 ng·h/mL
- AUC(0-t) (male, Dutch Belted, rabbit, plasma, po, […], plasma, male DB rabbits, Group 2, Day 15, […] BID oral (15 mg/kg/day), read-out: AUC0-24): 2130 ng·h/mL
- AUC(0-t) (male, Dutch Belted, rabbit, plasma, po, […], plasma, male DB rabbits, Group 2, Day 15, […] BID oral (15 mg/kg/day), read-out: AUC0-240): 2370 ng·h/mL
- AUC(0-t) (male, Dutch Belted, rabbit, plasma, po, […], plasma, male DB rabbits, Group 2, Day 15, […] BID oral (15 mg/kg/day), read-out: AUC0-t): 2130 ng·h/mL
- concentration at 6 h (male, Dutch Belted, rabbit, retina, oral, […] BID, DB rabbits, Day 15, […] BID, read-out: Mean Retina Concentration): 97.9 ng/g
- concentration at 24 h (male, Dutch Belted, rabbit, retina, oral, […] BID, DB rabbits, Day 15, […] BID, 24 hr, read-out: Mean Retina Concentration): 44.3 ng/g
- concentration at 96 h (male, Dutch Belted, rabbit, retina, oral, […] BID, DB rabbits, Day 15, […] BID, 96 hr, read-out: Mean Retina Concentration): 13.9 ng/g
- concentration at 168 h (male, Dutch Belted, rabbit, retina, oral, […] BID, DB rabbits, Day 15, […] BID, 168 hr, read-out: Mean Retina Concentration): 10.7 ng/g
- concentration at 240 h (male, Dutch Belted, rabbit, retina, oral, […] BID, DB rabbits, Day 15, […] BID, 240 hr, read-out: Mean Retina Concentration): 7.18 ng/g
- concentration at 6 h (male, Dutch Belted, rabbit, retina, oral, […], DB rabbits, Day 1, […] single dose, read-out: Mean Retina Concentration): 27.5 ng/g
- concentration at 12 h (male, Dutch Belted, rabbit, retina, oral, […], DB rabbits, Day 1, […] single dose, 12 hr, read-out: Mean Retina Concentration): 16.5 ng/g
- Cmax (male, Dutch Belted, rabbit, retina, po, 15 mg/kg, Retina (OU), male DB rabbits, Group 3, Day 15, 15 mg/kg/dose BID oral (30 mg/kg/day)): 1290 ng/g
- Cmax (male, Dutch Belted, rabbit, retina, po, […], Retina (OU), male DB rabbits, Group 1, Day 1, […] single oral dose): 188 ng/g
- Cmax (male, Dutch Belted, rabbit, retina, po, […], Retina (OU), male DB rabbits, Group 2, Day 15, […] BID oral (15 mg/kg/day)): 306 ng/g
- Ctrough [13]: 14.8 ng/mL
- DN AUC0-12 [13]: 194 (h*ng/mL)/(mg/kg/dose)
- DN AUC0-24 [13]: 208 (h*ng/mL)/(mg/kg/day)
- DN Cmax [13]: 56.4 (ng/mL)/(mg/kg/day)
- Ctrough [14]: 29.6 ng/mL
- DN AUC0-12 [14]: 255 (h*ng/mL)/(mg/kg/dose)
- DN AUC0-24 [14]: 284 (h*ng/mL)/(mg/kg/day)
- DN Cmax [14]: 58.6 (ng/mL)/(mg/kg/day)
- Ctrough [15]: 54.3 ng/mL
- DN AUC0-12 [15]: 242 (h*ng/mL)/(mg/kg/dose)
- DN AUC0-24 [15]: 267 (h*ng/mL)/(mg/kg/day)
- DN Cmax [15]: 60.7 (ng/mL)/(mg/kg/day)
- Tolerability, clinical observations (rabbits, single oral […] and BID ≥15 mg/kg/day): well tolerated
